According to patent US20240284907A1, “NOVEL DERIVATIVES OF NON-CODED AMINO ACIDS AND THEIR USE AS HERBICIDES” (FortePhest LTD., priority 2021, published 2024):

How the values were obtained:
[1] = test system: Romaine lettuce (Lactuca sativa L.) plants; test: Comparison of NAA and DNAA: growth inhibition of potted Romaine lettuce plants; type: in vivo; conditions: two weeks after treatment
Description: The tests were performed on Romaine lettuce (Lactuca sativa L.) plants at the stage 2 to 3 leaves. The plants were grown in mini-pots packed with soil, dimensions 2×2×5 cm, one plant per mini-pot. Test compounds were dissolved in 0.1% aqueous solution water solution of Silwet adjuvant. The test material where applied in rate 0 (Control), 0.01, 0.05, and 0.5 mg/pot. The test compounds were applied on soil or foliar with airbrush (0.1 ml per pot). Each concentration was tested on 20 plants. Two weeks after the treatment the herbicidal effects of the respective test material were visually evaluated (aboveground part and roots. Then the aboveground part of the plants was neatly cut and weighed (wet weight) to assess the growth inhibition caused by the test compound. The growth inhibition (GI) was calculated as following: […]
Where Mt and Mc are median wet weight of treated and control plants, respectively.

[2] = test system: Seeds of Lettuce R. (Super-Jericho); test: Filter paper bioassay with lettuce seeds: germination and early plant development, Minimal Effective Concentration (MEC); type: in vivo; conditions: lettuce seeds on filter paper, 0 to 1 mmol/l, visually assessed after 6 days
In short: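 Non-sterilized Super-Jericho lettuce seeds, 10 per dish, on filter paper wetted with aqueous test solution at 0–1 mmol/l. Kept 48 h dark, then 4 days at 6/18 dark/light. MEC is the lowest concentration causing no germination or radicle/shoot malformation by visual scoring at day 6; at least two repeats.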

[3] = test system: Romaine lettuce (Lactuca sativa L.) plants; test: Post-emergence herbicidal activity on potted Romaine lettuce plants (soil or foliar application); type: in vivo; conditions: lettuce at 2 to 3 leaves, two weeks after treatment
In short: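 Potted lettuce at the 2-3 leaf stage received compound in 0.1% aqueous Silwet, up to 0.0001%, applied to soil (1 ml/pot) or sprayed on foliage (0.1 ml/pot), 20 plants per concentration. Visual scoring and aboveground wet weight after two weeks; growth inhibition from median weights versus control.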

[4] = test system: Chenopodium; test: Herbicidal effect on potted weeds, plant development score; type: in vivo; conditions: soil application 1 mg/pot, scale 0 (dead plants) to 5 (healthy, as Control)
Description: (§1) Weed seeds were sawn in 0.3-liter pots, containing medium-heavy clay-loam soil from organic fields (55% clay, 23% silt, 20% sand, 2% organic matter, pH 7.1). The experiment was conducted in a completely randomized design. Each treatment was replicated 3 times (3 pots). Each compound was typically tested on crops (Corn, Wheat, Soy, Cotton, Oat, Chickpea) and weeds (Amaranth, Chenopodium, Lentils, Sinapis, Silybum).
(§2) The herbicides were applied at dose from 0 (control) to 5 mg/pot. The treatment was performed at the day of sawn (pre-emergence treatment). Then the pots were transferred to a mesh house 24 hours after herbicide application and were sprinkler irrigated to field capacity of the soil. Alternatively, the herbicides were applied on grown plants at stage 2-3 true leaves (post-emergence treatment).
(§3) The plants were grown in the mesh house during the entire experiment. Plant development at 6, 12, 19, 26 and 32 days after application (DAA) were evaluated on a scale of 0 to 5, in which 0 represents dead plants and 5 represents healthy plants similar or not different from Control. In the context of the invention, the herbicidal effect was expressed as a score calculated as an average of assessments of plants vigor, height, and leaf color.

[5] = test system: Silybum; test: as above; type: in vivo; conditions: soil application 1 mg/pot, scale 0 (dead plants) to 5 (healthy, as Control)
Description: as §1, §2, §3

[6] = test system: Amaranth; test: as above; type: in vivo; conditions: soil application 1 mg/pot, scale 0 (dead plants) to 5 (healthy, as Control)
Description: as §1, §2, §3

[7] = test system: Sinapis; test: as above; type: in vivo; conditions: soil application 1 mg/pot, scale 0 (dead plants) to 5 (healthy, as Control)
Description: as §1, §2, §3

[8] = test system: Lentils; test: as above; type: in vivo; conditions: soil application 1 mg/pot, scale 0 (dead plants) to 5 (healthy, as Control)
Description: as §1, §2, §3

[9] = test system: Seeds of Lettuce R. (Super-Jericho); test: Filter paper bioassay with lettuce seeds: germination, Fully Effective Concentration (FEC); type: in vivo; conditions: lowest concentration mostly preventing lettuce seed germination, assessed after 6 days
In short: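 Ten lettuce seeds per Petri dish on filter paper with 2.0 ml aqueous test solution, 0 to 1 mmol/l, kept 48 hours dark then 4 days at 6/18 dark/light. Radicle and shoot assessed visually at day 6; FEC is the lowest concentration mostly preventing germination.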

[10] = foliar application, 0.05 mg/pot
[11] = foliar application, 0.50 mg/pot

For “2-(6-bromopyridin-2-yl)-2,2-difluoroacetic acid [compound 6617]”, the “Herbicidal effect, growth application (%)” value (“Herbicidal effect … (%)” for short) [1, 10] was 88%, the “Herbicidal effect … (%)” value [1, 11] was 100% and the “Herbicidal effect … (%)” value ([1]; soil application, 0.01 mg/pot) was 52%. The “Herbicidal effect … (%)” value ([1]; soil application, 0.05 mg/pot) was 92%, the “Herbicidal effect … (%)” value ([1]; soil application, 0.50 mg/pot) was 91% and the “Score (activity score of Minimal Effective Concentration, MEC)” value [2] was “Strong (0.01 mM)”. The “Score (test material causing more than 85% of Growth Inhibition or irreversible plant damage)” value ([3]; foliar application) was “moderate (0.5)”, the “Score (test material causing more than 85% of Growth Inhibition or irreversible plant damage)” value ([3]; soil application) was “strong (0.01 to 0.05)” and the “Average Herbicidal Effect, Chenopodium” value ([4]; post-emergence) was 0.5. For the same compound, the “Average Herbicidal Effect, Chenopodium” value ([4]; pre-emergence) was 4.5, the “Average Herbicidal Effect, Silybum” value ([5]; post-emergence) was 4.5 and the “Average Herbicidal Effect, Silybum” value ([5]; pre-emergence) was 5.0. For the same compound, the “Average Herbicidal Effect, Amaranth” value ([6]; post-emergence) was 2.0, the “Average Herbicidal Effect, Amaranth” value ([6]; pre-emergence) was 4.5 and the “Average Herbicidal Effect, Sinapis” value ([7]; post-emergence) was 2.0. For the same compound, the “Average Herbicidal Effect, Sinapis” value ([7]; pre-emergence) was 3.5, the “Average Herbicidal Effect, Lentils” value ([8]; post-emergence) was 1.0 and the “Average Herbicidal Effect, Lentils” value ([8]; pre-emergence) was 2.0.
For “(2,5-dichlorothiophen-3-yl)(difluoro)acetic acid [compound 5640]”, the “Herbicidal effect … (%)” value [1, 10] was 100%, the “Herbicidal effect … (%)” value [1, 11] was 100% and the “Herbicidal effect … (%)” value ([1]; soil application, 0.01 mg/pot) was 5%. For the same compound, the “Herbicidal effect … (%)” value ([1]; soil application, 0.05 mg/pot) was 100%, the “Herbicidal effect … (%)” value ([1]; soil application, 0.50 mg/pot) was 100% and the “Score (activity score of Minimal Effective Concentration, MEC)” value [2] was “Strong (0.01 mM)”. The “Score (test material causing more than 85% of Growth Inhibition or irreversible plant damage)” value ([3]; foliar application) was “strong (0.01 to 0.05)”, the “Score (test material causing more than 85% of Growth Inhibition or irreversible plant damage)” value ([3]; soil application) was “strong (0.01 to 0.05)” and the “Average Herbicidal Effect, Chenopodium” value ([4]; pre-emergence) was 5.0. The “Average Herbicidal Effect, Silybum” value ([5]; post-emergence) was 2.0, the “Average Herbicidal Effect, Silybum” value ([5]; pre-emergence) was 2.5 and the “Average Herbicidal Effect, Amaranth” value ([6]; post-emergence) was 2.0. For the same compound, the “Average Herbicidal Effect, Amaranth” value ([6]; pre-emergence) was 4.0, the “Average Herbicidal Effect, Sinapis” value ([7]; post-emergence) was 0.0 and the “Average Herbicidal Effect, Lentils” value ([8]; post-emergence) was 2.1. The “Average Herbicidal Effect, Lentils” value ([8]; pre-emergence) was 0.0 and the “FEC (Fully Effective Concentration)” value [9] was 0.100 mM.
For `O=C([O-])C(F)(F)c1csc(Cl)n1.[Na+]` [compound 5666, sodium(2-chloro-1,3-thiazol-4-yl)(difluoro)acetate], the “Score (activity score of Minimal Effective Concentration, MEC)” value [2] was “very strong”, the “Score (test material causing more than 85% of Growth Inhibition or irreversible plant damage)” value ([3]; foliar application) was “strong (0.01 to 0.05)” and the “Score (test material causing more than 85% of Growth Inhibition or irreversible plant damage)” value ([3]; soil application) was “strong (0.01 to 0.05)”. For the same compound, the “Average Herbicidal Effect, Chenopodium” value ([4]; post-emergence) was 1.5, the “Average Herbicidal Effect, Chenopodium” value ([4]; pre-emergence) was 0.0 and the “Average Herbicidal Effect, Silybum” value ([5]; post-emergence) was 0.0. For the same compound, the “Average Herbicidal Effect, Silybum” value ([5]; pre-emergence) was 0.5, the “Average Herbicidal Effect, Amaranth” value ([6]; post-emergence) was 1.2 and the “Average Herbicidal Effect, Amaranth” value ([6]; pre-emergence) was 1.0. For the same compound, the “Average Herbicidal Effect, Sinapis” value ([7]; post-emergence) was 0.0, the “Average Herbicidal Effect, Sinapis” value ([7]; pre-emergence) was 1.0 and the “Average Herbicidal Effect, Lentils” value ([8]; post-emergence) was 0.0. The “Average Herbicidal Effect, Lentils” value ([8]; pre-emergence) was 0.0 and the “FEC (Fully Effective Concentration)” value [9] was 0.010 mM.
With `O=C(O)C(F)(F)c1nc(Cl)sc1Cl` [compound 5667, 2-(2,5-dichloro-1,3-thiazol-4-yl)-2,2-difluoroacetic acid] the “Herbicidal effect … (%)” value [1, 10] was 92%, the “Herbicidal effect … (%)” value [1, 11] was 100% and the “Herbicidal effect … (%)” value ([1]; soil application, 0.01 mg/pot) was 90%. For the same compound, the “Herbicidal effect … (%)” value ([1]; soil application, 0.05 mg/pot) was 91%, the “Herbicidal effect … (%)” value ([1]; soil application, 0.50 mg/pot) was 100% and the “Score (activity score of Minimal Effective Concentration, MEC)” value [2] was “very strong”. For the same compound, the “Score (test material causing more than 85% of Growth Inhibition or irreversible plant damage)” value ([3]; foliar application) was “strong (0.01 to 0.05)”, the “Score (test material causing more than 85% of Growth Inhibition or irreversible plant damage)” value ([3]; soil application) was “strong (0.01 to 0.05)” and the “Average Herbicidal Effect, Chenopodium” value ([4]; post-emergence) was 2.4. The “Average Herbicidal Effect, Chenopodium” value ([4]; pre-emergence) was 0.0, the “Average Herbicidal Effect, Silybum” value ([5]; post-emergence) was 0.0 and the “Average Herbicidal Effect, Silybum” value ([5]; pre-emergence) was 3.5. For the same compound, the “Average Herbicidal Effect, Amaranth” value ([6]; post-emergence) was 3.0, the “Average Herbicidal Effect, Amaranth” value ([6]; pre-emergence) was 2.0 and the “Average Herbicidal Effect, Sinapis” value ([7]; post-emergence) was 0.0. The “Average Herbicidal Effect, Sinapis” value ([7]; pre-emergence) was 2.0, the “Average Herbicidal Effect, Lentils” value ([8]; post-emergence) was 0.0 and the “Average Herbicidal Effect, Lentils” value ([8]; pre-emergence) was 0.0.
`CC(=O)NCCc1nc(Cl)sc1Cl` [ID 5650, N-[2-(2,5-dichloro-1,3-thiazol-4-yl)ethyl]acetamide] gave a melting point of 87 °C.
